Results from PubChem BioAssay AID2060910 (Molecular Pharmacology Branch, DTP, NCI, 2025).

Test system: 242566-281-R-J2-PDC complex spheroid viability
Experiment: Anticancer human tumor 242566-281-R-J2-PDC patient-derived pancreatic carcinoma cell line growth inhibition [RAS]
Details: for IC50: curve of first compound; for viability, T/C: stronger effect = lower value
How it was run: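 Agents were tested in combination matrices in half-log decrements from a top concentration at or near clinical Cmax (10 microM if undetermined). Targets were multi-cell spheroids of tumour lines plus HUVEC and MSC stromal cells.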

[1] = second compound 0.00316 µM, first compound 0.00316 µM
[2] = second compound 0.00316 µM, first compound 0.01 µM
[3] = second compound 0.00316 µM, first compound 0.0316 µM
[4] = second compound 0.00316 µM, first compound 0.1 µM
[5] = second compound 0.00316 µM, first compound 0.316 µM
[6] = second compound 0.00316 µM, first compound 1 µM
[7] = second compound 0.01 µM, first compound 0.00316 µM
[8] = second compound 0.01 µM, first compound 0.01 µM
[9] = second compound 0.01 µM, first compound 0.0316 µM
[10] = second compound 0.01 µM, first compound 0.1 µM
[11] = second compound 0.01 µM, first compound 0.316 µM
[12] = second compound 0.01 µM, first compound 1 µM
[13] = second compound 0.0316 µM, first compound 0.00316 µM
[14] = second compound 0.0316 µM, first compound 0.01 µM
[15] = second compound 0.0316 µM, first compound 0.0316 µM
[16] = second compound 0.0316 µM, first compound 0.1 µM
[17] = second compound 0.0316 µM, first compound 0.316 µM
[18] = second compound 0.0316 µM, first compound 1 µM
[19] = second compound 0.1 µM, first compound 0.00316 µM
[20] = second compound 0.1 µM, first compound 0.01 µM
[21] = second compound 0.1 µM, first compound 0.0316 µM
[22] = second compound 0.1 µM, first compound 0.1 µM
[23] = second compound 0.1 µM, first compound 0.316 µM
[24] = second compound 0.1 µM, first compound 1 µM
[25] = second compound 0.316 µM, first compound 0.00316 µM
[26] = second compound 0.316 µM, first compound 0.01 µM
[27] = second compound 0.316 µM, first compound 0.0316 µM
[28] = second compound 0.316 µM, first compound 0.1 µM
[29] = second compound 0.316 µM, first compound 0.316 µM
[30] = second compound 0.316 µM, first compound 1 µM
[31] = second compound 1 µM, first compound 0.00316 µM
[32] = second compound 1 µM, first compound 0.01 µM
[33] = second compound 1 µM, first compound 0.0316 µM
[34] = second compound 1 µM, first compound 0.1 µM
[35] = second compound 1 µM, first compound 0.316 µM
[36] = second compound 1 µM, first compound 1 µM
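Further: spheroids exposed to compound for 7 days before readout.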
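Wherever viability, T/C is given: 100% = DMSO vehicle control wells.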

## CC1(C)CCC(Nc2ncc(C(F)(F)F)c(-c3c[nH]c4c(P(C)(C)=O)c(C#N)ccc34)n2)CN1 (stereo not drawn) + C#Cc1c(F)ccc2cc(O)cc(-c3ncc4c(N5CC6CCC(C5)N6)nc(OCC56CCCN5CC(F)C6)nc4c3F)c12
Second compound 0.0316 µM
  IC50: > 0.3 µM
Second compound 0.1 µM
  IC50: > 0.3 µM
Second compound 0.316 µM
  IC50: > 0.3 µM
Second compound 1 µM
  IC50: > 0.3 µM
Second compound 3.16 µM
  IC50: > 0.3 µM
Second compound 10 µM
  IC50: < 0.000949 µM
Second compound 0.0316 µM, first compound 0.000949 µM
  viability, T/C: 90.3%
Second compound 0.0316 µM, first compound 0.003 µM
  viability, T/C: 111%
Second compound 0.0316 µM, first compound 0.00949 µM
  viability, T/C: 85.6%
Second compound 0.0316 µM, first compound 0.03 µM
  viability, T/C: 86.4%
Second compound 0.0316 µM, first compound 0.0949 µM
  viability, T/C: 84.9%
Second compound 0.0316 µM, first compound 0.3 µM
  viability, T/C: 88.8%
Second compound 0.1 µM, first compound 0.000949 µM
  viability, T/C: 78.1%
Second compound 0.1 µM, first compound 0.003 µM
  viability, T/C: 81.8%
Second compound 0.1 µM, first compound 0.00949 µM
  viability, T/C: 71.6%
Second compound 0.1 µM, first compound 0.03 µM
  viability, T/C: 81.7%
Second compound 0.1 µM, first compound 0.0949 µM
  viability, T/C: 81.2%
Second compound 0.1 µM, first compound 0.3 µM
  viability, T/C: 81.3%
Second compound 0.316 µM, first compound 0.000949 µM
  viability, T/C: 70.7%
Second compound 0.316 µM, first compound 0.003 µM
  viability, T/C: 66.6%
Second compound 0.316 µM, first compound 0.00949 µM
  viability, T/C: 62.3%
Second compound 0.316 µM, first compound 0.03 µM
  viability, T/C: 60.5%
Second compound 0.316 µM, first compound 0.0949 µM
  viability, T/C: 62.9%
Second compound 0.316 µM, first compound 0.3 µM
  viability, T/C: 62.9%
Second compound 1 µM, first compound 0.000949 µM
  viability, T/C: 59.4%
Second compound 1 µM, first compound 0.003 µM
  viability, T/C: 59.8%
Second compound 1 µM, first compound 0.00949 µM
  viability, T/C: 49.3%
Second compound 1 µM, first compound 0.03 µM
  viability, T/C: 47.4%
Second compound 1 µM, first compound 0.0949 µM
  viability, T/C: 55.1%
Second compound 1 µM, first compound 0.3 µM
  viability, T/C: 59.5%
Second compound 3.16 µM, first compound 0.000949 µM
  viability, T/C: 50.8%
Second compound 3.16 µM, first compound 0.003 µM
  viability, T/C: 57.5%
Second compound 3.16 µM, first compound 0.00949 µM
  viability, T/C: 48.4%
Second compound 3.16 µM, first compound 0.03 µM
  viability, T/C: 47.4%
Second compound 3.16 µM, first compound 0.0949 µM
  viability, T/C: 49.8%
Second compound 3.16 µM, first compound 0.3 µM
  viability, T/C: 53.3%
Second compound 10 µM, first compound 0.000949 µM
  viability, T/C: 45.2%
Second compound 10 µM, first compound 0.003 µM
  viability, T/C: 50%
Second compound 10 µM, first compound 0.00949 µM
  viability, T/C: 44.7%
Second compound 10 µM, first compound 0.03 µM
  viability, T/C: 50.2%
Second compound 10 µM, first compound 0.0949 µM
  viability, T/C: 53.4%
Second compound 10 µM, first compound 0.3 µM
  viability, T/C: 44.1%

## C=CC(=O)Nc1cc(Nc2nccc(-c3cn(C)c4ccccc34)n2)c(OC)cc1N(C)CCN(C)C + C=CC(=O)N1CCN(c2nc(OCC3CCCN3C)nc3c(F)c(-c4nc(N)cc(C)c4C(F)(F)F)c(Cl)cc23)C(C)C1
Second compound 0.00316 µM
  IC50: > 1 µM
Second compound 0.01 µM
  IC50: > 1 µM
Second compound 0.0316 µM
  IC50: > 1 µM
Second compound 0.1 µM
  IC50: > 1 µM
Second compound 0.316 µM
  IC50: > 1 µM
Second compound 1 µM
  IC50: > 1 µM
[1]
  viability, T/C: 95.1%
[2]
  viability, T/C: 133%
[3]
  viability, T/C: 82.7%
[4]
  viability, T/C: 74.5%
[5]
  viability, T/C: 80.5%
[6]
  viability, T/C: 85.7%
[7]
  viability, T/C: 97.6%
[8]
  viability, T/C: 138%
[9]
  viability, T/C: 86.7%
[10]
  viability, T/C: 93.4%
[11]
  viability, T/C: 86.1%
[12]
  viability, T/C: 84.8%
[13]
  viability, T/C: 109%
[14]
  viability, T/C: 121%
[15]
  viability, T/C: 90.7%
[16]
  viability, T/C: 91%
[17]
  viability, T/C: 79.8%
[18]
  viability, T/C: 78.3%
[19]
  viability, T/C: 105%
[20]
  viability, T/C: 136%
[21]
  viability, T/C: 103%
[22]
  viability, T/C: 95.4%
[23]
  viability, T/C: 78.9%
[24]
  viability, T/C: 76.8%
[25]
  viability, T/C: 104%
[26]
  viability, T/C: 121%
[27]
  viability, T/C: 96.4%
[28]
  viability, T/C: 79.2%
[29]
  viability, T/C: 95.3%
[30]
  viability, T/C: 87.2%
[31]
  viability, T/C: 108%
[32]
  viability, T/C: 129%
[33]
  viability, T/C: 81%
[34]
  viability, T/C: 112%
[35]
  viability, T/C: 83.7%
[36]
  viability, T/C: 89.8%

## CC(Nc1ccc2c(c1)OCCn1cc(N3C(=O)OCC3C(F)F)nc1-2)C(N)=O (stereo not drawn) + C=CC(=O)N1CCN(c2nc(OCC3CCCN3C)nc3c(F)c(-c4nc(N)cc(C)c4C(F)(F)F)c(Cl)cc23)C(C)C1
Second compound 0.00316 µM
  IC50: 0.753 µM
Second compound 0.01 µM
  IC50: 0.926 µM
Second compound 0.0316 µM
  IC50: 1.71 µM
Second compound 0.1 µM
  IC50: 0.627 µM
Second compound 0.316 µM
  IC50: 1.43 µM
Second compound 1 µM
  IC50: 1.29 µM
[3]
  viability, T/C: 86.4%
[4]
  viability, T/C: 113%
[5]
  viability, T/C: 76.7%
[6]
  viability, T/C: 42.7%
Second compound 0.00316 µM, first compound 3.16 µM
  viability, T/C: 34.7%
Second compound 0.00316 µM, first compound 10 µM
  viability, T/C: 27.4%
[9]
  viability, T/C: 105%
[10]
  viability, T/C: 115%
[11]
  viability, T/C: 80.3%
[12]
  viability, T/C: 48.3%
Second compound 0.01 µM, first compound 3.16 µM
  viability, T/C: 37.1%
Second compound 0.01 µM, first compound 10 µM
  viability, T/C: 24.4%
[15]
  viability, T/C: 96.1%
[16]
  viability, T/C: 102%
[17]
  viability, T/C: 76.1%
[18]
  viability, T/C: 63.4%
Second compound 0.0316 µM, first compound 3.16 µM
  viability, T/C: 36.6%
Second compound 0.0316 µM, first compound 10 µM
  viability, T/C: 30.9%
[21]
  viability, T/C: 103%
[22]
  viability, T/C: 105%
[23]
  viability, T/C: 66%
[24]
  viability, T/C: 41.7%
Second compound 0.1 µM, first compound 3.16 µM
  viability, T/C: 37.2%
Second compound 0.1 µM, first compound 10 µM
  viability, T/C: 27.8%
[27]
  viability, T/C: 89.8%
[28]
  viability, T/C: 91.2%
[29]
  viability, T/C: 72%
[30]
  viability, T/C: 55.3%
Second compound 0.316 µM, first compound 3.16 µM
  viability, T/C: 40%
Second compound 0.316 µM, first compound 10 µM
  viability, T/C: 30.6%
[33]
  viability, T/C: 104%
[34]
  viability, T/C: 117%
[35]
  viability, T/C: 85.9%
[36]
  viability, T/C: 53.4%
Second compound 1 µM, first compound 3.16 µM
  viability, T/C: 47%
Second compound 1 µM, first compound 10 µM
  viability, T/C: 35.1%

## O=C(c1ccc(F)c(F)c1Nc1ccc(I)cc1F)N1CC(O)([C@@H]2CCCCN2)C1 + C=CC(=O)N1CCN(c2nc(OCC3CCCN3C)nc3c(F)c(-c4nc(N)cc(C)c4C(F)(F)F)c(Cl)cc23)C(C)C1
Second compound 0.00316 µM
  IC50: 0.26 µM
Second compound 0.01 µM
  IC50: 0.677 µM
Second compound 0.0316 µM
  IC50: 0.436 µM
Second compound 0.1 µM
  IC50: 0.593 µM
Second compound 0.316 µM
  IC50: > 1 µM
Second compound 1 µM
  IC50: 0.281 µM
[1]
  viability, T/C: 91.4%
[2]
  viability, T/C: 116%
[3]
  viability, T/C: 92.6%
[4]
  viability, T/C: 64.8%
[5]
  viability, T/C: 48%
[6]
  viability, T/C: 43.9%
[7]
  viability, T/C: 92.5%
[8]
  viability, T/C: 116%
[9]
  viability, T/C: 79.7%
[10]
  viability, T/C: 73.5%
[11]
  viability, T/C: 53.5%
[12]
  viability, T/C: 47.4%
[13]
  viability, T/C: 104%
[14]
  viability, T/C: 117%
[15]
  viability, T/C: 80.2%
[16]
  viability, T/C: 74.6%
[17]
  viability, T/C: 52.9%
[18]
  viability, T/C: 42.1%
[19]
  viability, T/C: 103%
[20]
  viability, T/C: 104%
[21]
  viability, T/C: 94.4%
[22]
  viability, T/C: 70.6%
[23]
  viability, T/C: 60.6%
[24]
  viability, T/C: 43%
[25]
  viability, T/C: 103%
[26]
  viability, T/C: 113%
[27]
  viability, T/C: 68.3%
[28]
  viability, T/C: 70.7%
[29]
  viability, T/C: 61%
[30]
  viability, T/C: 48.7%
[31]
  viability, T/C: 101%
[32]
  viability, T/C: 112%
[33]
  viability, T/C: 97.9%
[34]
  viability, T/C: 73.4%
[35]
  viability, T/C: 45.8%
[36]
  viability, T/C: 44.6%
